Results reported in ChEMBL document CHEMBL3758169, “4-Aminoindazolyl-dihydrofuro[3,4-d]pyrimidines as non-covalent inhibitors of mutant epidermal growth factor receptor tyrosine kinase” (Bioorg Med Chem Lett, 2016).

What was measured:
[1] = molecular target: Fibroblast growth factor receptor 3 (Homo sapiens) (UniProt P22607); assay: Inhibition of FGFR3 (unknown origin) at 100 nM
[2] = molecular target: Dual specificity mitogen-activated protein kinase kinase 3 (Homo sapiens) (UniProt P46734); assay: Inhibition of MEK3 (unknown origin) at 100 nM
[3] = molecular target: G protein-coupled receptor kinase 3 (Homo sapiens) (UniProt P35626); assay: Inhibition of GRK3 (unknown origin) at 100 nM
[4] = molecular target: Calcium/calmodulin-dependent protein kinase type 1 (Homo sapiens) (UniProt Q14012); assay: Inhibition of CaMKI (unknown origin) at 100 nM
[5] = molecular target: Cytoplasmic tyrosine-protein kinase BMX (Homo sapiens) (UniProt P51813); assay: Inhibition of BMX (unknown origin) at 100 nM
[6] = molecular target: Macrophage-stimulating protein receptor (Homo sapiens) (UniProt Q04912); assay: Inhibition of RON (unknown origin) at 100 nM
[7] = molecular target: Serine/threonine-protein kinase 3 (Homo sapiens) (UniProt Q13188); assay: Inhibition of MST2 (unknown origin) at 100 nM
[8] = molecular target: Testis-specific serine/threonine-protein kinase 1 (Homo sapiens) (UniProt Q9BXA7); assay: Inhibition of TSSK1 (unknown origin) at 100 nM
[9] = molecular target: Dual specificity protein kinase CLK1 (Homo sapiens) (UniProt P49759); assay: Inhibition of CLK1 (unknown origin) at 100 nM
[10] = molecular target: Dual specificity tyrosine-phosphorylation-regulated kinase 1B (Homo sapiens) (UniProt Q9Y463); assay: Inhibition of DYRK1B (unknown origin) at 100 nM
[11] = molecular target: Ephrin type-B receptor 1 (Homo sapiens) (UniProt P54762); assay: Inhibition of EPHB1 (unknown origin) at 100 nM
[12] = Total AUC in rat at 5 mg/kg, po; format: ADME, organism-based; parameters: dose 5 mg/kg, time AUCmax, route oral; details: in vivo
[13] = molecular target: Casein kinase II subunit alpha (Homo sapiens) (UniProt P68400); assay: Inhibition of CK2alpha1 (unknown origin) at 100 nM
[14] = molecular target: Vascular endothelial growth factor receptor 3 (Homo sapiens) (UniProt P35916); assay: Inhibition of FLT4 (unknown origin) at 100 nM
[15] = molecular target: Ribosomal protein S6 kinase alpha-6 (Homo sapiens) (UniProt Q9UK32); assay: Inhibition of RSK4 (unknown origin) at 100 nM
[16] = test system: Fibroblast growth factor receptor 3 (Homo sapiens), P22607 [K650E]; assay: Inhibition of FGFR3 K650E mutant (unknown origin) at 100 nM
[17] = molecular target: NT-3 growth factor receptor (Homo sapiens) (UniProt Q16288); assay: Inhibition of TRKC (unknown origin) at 100 nM
[18] = molecular target: Dual specificity tyrosine-phosphorylation-regulated kinase 4 (Homo sapiens) (UniProt Q9NR20); assay: Inhibition of DYRK4 (unknown origin) at 100 nM
[19] = molecular target: Serine/threonine-protein kinase SIK2 (Homo sapiens) (UniProt Q9H0K1); assay: Inhibition of SIK2 (unknown origin) at 100 nM
[20] = molecular target: Cyclin-dependent kinase 7/ cyclin H (Homo sapiens) (UniProt P51946+P50613); assay: Inhibition of CDK7/cyclinH (unknown origin) at 100 nM; format: protein-complex assay
[21] = molecular target: STE20-like serine/threonine-protein kinase (Homo sapiens) (UniProt Q9H2G2); assay: Inhibition of SLK (unknown origin) at 100 nM
[22] = molecular target: Ribosomal protein S6 kinase alpha-4 (Homo sapiens) (UniProt O75676); assay: Inhibition of MSK2 (unknown origin) at 100 nM
[23] = molecular target: Beta-adrenergic receptor kinase 1 (Homo sapiens) (UniProt P25098); assay: Inhibition of GRK2 (unknown origin) at 100 nM
[24] = molecular target: Serine/threonine-protein kinase TAO1 (Homo sapiens) (UniProt Q7L7X3); assay: Inhibition of TAO1 (unknown origin) at 100 nM
[25] = molecular target: Protein kinase C eta type (Homo sapiens) (UniProt P24723); assay: Inhibition of PKCeta (unknown origin) at 100 nM
[26] = molecular target: Tyrosine-protein kinase HCK (Homo sapiens) (UniProt P08631); assay: Inhibition of HCK (unknown origin) at 100 nM
[27] = molecular target: Bone morphogenetic protein receptor type-1A (Homo sapiens) (UniProt P36894); assay: Inhibition of BMPR1A (unknown origin) at 100 nM
[28] = molecular target: Ephrin type-A receptor 4 (Homo sapiens) (UniProt P54764); assay: Inhibition of EPHA4 (unknown origin) at 100 nM
[29] = molecular target: Rhodopsin kinase GRK7 (Homo sapiens) (UniProt Q8WTQ7); assay: Inhibition of GRK7 (unknown origin) at 100 nM
[30] = molecular target: Serine/threonine-protein kinase Sgk2 (Homo sapiens) (UniProt Q9HBY8); assay: Inhibition of SGK2 (unknown origin) at 100 nM
[31] = molecular target: Myosin light chain kinase, smooth muscle (Homo sapiens) (UniProt Q15746); assay: Inhibition of MYLK (unknown origin) at 100 nM
[32] = molecular target: Mitogen-activated protein kinase kinase kinase 9 (Homo sapiens) (UniProt P80192); assay: Inhibition of MLK1 (unknown origin) at 100 nM
[33] = molecular target: 3-phosphoinositide-dependent protein kinase 1 (Homo sapiens) (UniProt O15530); assay: Inhibition of PDK1 (unknown origin) by direct binding assay at 100 nM
[34] = molecular target: Protein kinase C iota type (Homo sapiens) (UniProt P41743); assay: Inhibition of PKCiota (unknown origin) at 100 nM
[35] = molecular target: Tyrosine-protein kinase ABL2 (Homo sapiens) (UniProt P42684); assay: Inhibition of ARG (unknown origin) at 100 nM
[36] = molecular target: Serine/threonine-protein kinase Sgk1 (Homo sapiens) (UniProt O00141); assay: Inhibition of SGK1 (unknown origin) at 100 nM
[37] = molecular target: Serine/threonine-protein kinase B-raf (Homo sapiens) (UniProt P15056); assay: Inhibition of B-Raf (unknown origin) at 100 nM
[38] = molecular target: Homeodomain-interacting protein kinase 4 (Homo sapiens) (UniProt Q8NE63); assay: Inhibition of HIPK4 (unknown origin) at 100 nM
[39] = molecular target: Ribosomal protein S6 kinase alpha-3 (Homo sapiens) (UniProt P51812); assay: Inhibition of RSK2 (unknown origin) at 100 nM
[40] = molecular target: Sphingosine kinase 1 (Homo sapiens) (UniProt Q9NYA1); assay: Inhibition of SPHK1 (unknown origin) at 100 nM
[41] = molecular target: MAP kinase-interacting serine/threonine-protein kinase 1 (Homo sapiens) (UniProt Q9BUB5); assay: Inhibition of MKNK1 (unknown origin) at 100 nM
[42] = molecular target: Ribosomal protein S6 kinase alpha-5 (Homo sapiens) (UniProt O75582); assay: Inhibition of MSK1 (unknown origin) at 100 nM
[43] = molecular target: Dual specificity tyrosine-phosphorylation-regulated kinase 1A (Homo sapiens) (UniProt Q13627); assay: Inhibition of DYRK1A (unknown origin) at 100 nM

Sequence of Ribosomal protein S6 kinase alpha-5 (Homo sapiens) (O75582 whole entry, looked up): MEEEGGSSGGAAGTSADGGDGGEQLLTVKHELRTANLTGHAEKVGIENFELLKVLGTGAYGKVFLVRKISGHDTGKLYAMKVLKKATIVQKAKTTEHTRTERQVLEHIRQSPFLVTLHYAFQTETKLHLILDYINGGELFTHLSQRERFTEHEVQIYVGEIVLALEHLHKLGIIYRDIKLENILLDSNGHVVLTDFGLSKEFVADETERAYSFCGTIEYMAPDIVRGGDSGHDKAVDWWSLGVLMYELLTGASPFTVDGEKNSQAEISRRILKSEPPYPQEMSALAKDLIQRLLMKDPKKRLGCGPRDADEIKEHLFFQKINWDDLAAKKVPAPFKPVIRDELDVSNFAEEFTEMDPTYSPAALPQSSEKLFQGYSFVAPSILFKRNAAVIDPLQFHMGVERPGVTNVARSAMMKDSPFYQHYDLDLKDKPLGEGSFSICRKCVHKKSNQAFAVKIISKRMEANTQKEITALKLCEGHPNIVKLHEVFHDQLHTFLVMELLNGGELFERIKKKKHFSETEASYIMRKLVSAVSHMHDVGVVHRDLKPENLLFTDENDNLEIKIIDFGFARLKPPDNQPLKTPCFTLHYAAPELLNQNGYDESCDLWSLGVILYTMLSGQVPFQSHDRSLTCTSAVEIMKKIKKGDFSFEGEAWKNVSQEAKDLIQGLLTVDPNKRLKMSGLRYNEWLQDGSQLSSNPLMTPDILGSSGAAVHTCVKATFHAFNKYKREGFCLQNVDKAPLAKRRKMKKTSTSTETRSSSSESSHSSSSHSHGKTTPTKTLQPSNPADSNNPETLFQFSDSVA
Sequence of Fibroblast growth factor receptor 3 (Homo sapiens) (P22607 23-806 limits assumed): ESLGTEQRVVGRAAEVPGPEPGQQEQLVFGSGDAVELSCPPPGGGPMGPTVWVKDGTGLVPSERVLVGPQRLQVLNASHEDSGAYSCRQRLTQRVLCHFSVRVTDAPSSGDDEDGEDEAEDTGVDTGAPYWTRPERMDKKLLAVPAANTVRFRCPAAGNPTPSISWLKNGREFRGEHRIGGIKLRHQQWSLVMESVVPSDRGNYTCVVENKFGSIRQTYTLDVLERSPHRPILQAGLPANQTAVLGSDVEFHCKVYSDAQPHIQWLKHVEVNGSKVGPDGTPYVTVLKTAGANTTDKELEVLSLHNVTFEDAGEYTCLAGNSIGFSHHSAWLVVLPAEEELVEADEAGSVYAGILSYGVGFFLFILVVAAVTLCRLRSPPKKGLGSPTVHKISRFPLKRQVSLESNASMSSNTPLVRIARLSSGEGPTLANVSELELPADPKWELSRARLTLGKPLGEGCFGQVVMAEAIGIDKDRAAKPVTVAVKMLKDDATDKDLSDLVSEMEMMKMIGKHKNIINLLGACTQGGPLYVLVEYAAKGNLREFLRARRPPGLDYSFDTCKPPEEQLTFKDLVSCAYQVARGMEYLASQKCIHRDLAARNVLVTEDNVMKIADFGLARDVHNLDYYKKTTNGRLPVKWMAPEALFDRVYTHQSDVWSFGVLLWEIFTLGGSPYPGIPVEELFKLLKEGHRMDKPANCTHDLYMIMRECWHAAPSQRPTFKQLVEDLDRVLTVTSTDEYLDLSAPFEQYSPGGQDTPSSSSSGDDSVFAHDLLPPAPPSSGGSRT
Sequence of Tyrosine-protein kinase HCK (Homo sapiens) (P08631 2-526 limits assumed): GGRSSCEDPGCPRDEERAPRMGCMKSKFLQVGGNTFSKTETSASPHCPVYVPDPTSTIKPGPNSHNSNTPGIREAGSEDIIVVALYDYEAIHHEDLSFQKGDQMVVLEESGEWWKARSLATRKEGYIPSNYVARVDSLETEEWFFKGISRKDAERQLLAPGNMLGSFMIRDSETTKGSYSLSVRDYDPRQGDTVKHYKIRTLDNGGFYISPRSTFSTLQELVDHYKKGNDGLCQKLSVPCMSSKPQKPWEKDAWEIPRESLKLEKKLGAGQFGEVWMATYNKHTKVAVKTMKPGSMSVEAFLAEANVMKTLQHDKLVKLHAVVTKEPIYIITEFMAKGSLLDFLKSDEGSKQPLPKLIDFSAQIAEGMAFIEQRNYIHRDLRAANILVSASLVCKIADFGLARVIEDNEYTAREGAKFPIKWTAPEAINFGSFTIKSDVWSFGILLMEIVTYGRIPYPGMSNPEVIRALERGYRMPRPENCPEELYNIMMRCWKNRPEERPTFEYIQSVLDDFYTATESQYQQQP
Sequence of Beta-adrenergic receptor kinase 1 (Homo sapiens) (P25098 whole entry): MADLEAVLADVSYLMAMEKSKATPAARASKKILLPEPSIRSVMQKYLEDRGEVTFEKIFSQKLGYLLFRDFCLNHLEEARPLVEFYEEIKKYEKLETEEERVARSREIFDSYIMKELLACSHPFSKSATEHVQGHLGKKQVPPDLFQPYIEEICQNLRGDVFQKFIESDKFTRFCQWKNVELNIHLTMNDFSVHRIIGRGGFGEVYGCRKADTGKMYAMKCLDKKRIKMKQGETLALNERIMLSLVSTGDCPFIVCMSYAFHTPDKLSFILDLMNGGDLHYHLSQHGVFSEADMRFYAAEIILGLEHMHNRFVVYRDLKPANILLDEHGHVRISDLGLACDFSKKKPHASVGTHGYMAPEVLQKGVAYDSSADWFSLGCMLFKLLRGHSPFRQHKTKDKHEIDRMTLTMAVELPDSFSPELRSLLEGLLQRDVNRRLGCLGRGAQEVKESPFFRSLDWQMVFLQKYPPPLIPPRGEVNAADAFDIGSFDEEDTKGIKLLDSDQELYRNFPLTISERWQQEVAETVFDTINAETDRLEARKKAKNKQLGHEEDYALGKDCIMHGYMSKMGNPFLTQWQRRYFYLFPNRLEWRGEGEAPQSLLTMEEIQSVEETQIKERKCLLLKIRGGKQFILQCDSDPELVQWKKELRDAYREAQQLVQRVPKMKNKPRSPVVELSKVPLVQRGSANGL
Sequence of Dual specificity tyrosine-phosphorylation-regulated kinase 1B (Homo sapiens) (Q9Y463 whole entry, looked up): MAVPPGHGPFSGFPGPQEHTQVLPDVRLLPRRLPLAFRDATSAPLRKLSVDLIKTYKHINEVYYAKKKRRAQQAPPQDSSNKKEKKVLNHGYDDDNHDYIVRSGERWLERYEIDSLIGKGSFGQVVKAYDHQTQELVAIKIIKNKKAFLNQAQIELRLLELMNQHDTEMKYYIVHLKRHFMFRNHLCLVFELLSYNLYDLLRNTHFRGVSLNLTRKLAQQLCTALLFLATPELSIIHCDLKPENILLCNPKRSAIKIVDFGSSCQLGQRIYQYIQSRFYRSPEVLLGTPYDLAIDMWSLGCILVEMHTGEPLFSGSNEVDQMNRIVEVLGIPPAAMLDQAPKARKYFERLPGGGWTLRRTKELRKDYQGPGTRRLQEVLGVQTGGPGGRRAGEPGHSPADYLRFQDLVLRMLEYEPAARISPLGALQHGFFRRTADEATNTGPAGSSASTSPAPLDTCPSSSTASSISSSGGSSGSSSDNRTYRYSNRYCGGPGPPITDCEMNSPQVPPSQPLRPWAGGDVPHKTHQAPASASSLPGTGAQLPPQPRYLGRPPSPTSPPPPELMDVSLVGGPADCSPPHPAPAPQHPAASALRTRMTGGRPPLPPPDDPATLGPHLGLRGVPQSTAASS
Sequence of Ribosomal protein S6 kinase alpha-4 (Homo sapiens) (O75676 whole entry, looked up): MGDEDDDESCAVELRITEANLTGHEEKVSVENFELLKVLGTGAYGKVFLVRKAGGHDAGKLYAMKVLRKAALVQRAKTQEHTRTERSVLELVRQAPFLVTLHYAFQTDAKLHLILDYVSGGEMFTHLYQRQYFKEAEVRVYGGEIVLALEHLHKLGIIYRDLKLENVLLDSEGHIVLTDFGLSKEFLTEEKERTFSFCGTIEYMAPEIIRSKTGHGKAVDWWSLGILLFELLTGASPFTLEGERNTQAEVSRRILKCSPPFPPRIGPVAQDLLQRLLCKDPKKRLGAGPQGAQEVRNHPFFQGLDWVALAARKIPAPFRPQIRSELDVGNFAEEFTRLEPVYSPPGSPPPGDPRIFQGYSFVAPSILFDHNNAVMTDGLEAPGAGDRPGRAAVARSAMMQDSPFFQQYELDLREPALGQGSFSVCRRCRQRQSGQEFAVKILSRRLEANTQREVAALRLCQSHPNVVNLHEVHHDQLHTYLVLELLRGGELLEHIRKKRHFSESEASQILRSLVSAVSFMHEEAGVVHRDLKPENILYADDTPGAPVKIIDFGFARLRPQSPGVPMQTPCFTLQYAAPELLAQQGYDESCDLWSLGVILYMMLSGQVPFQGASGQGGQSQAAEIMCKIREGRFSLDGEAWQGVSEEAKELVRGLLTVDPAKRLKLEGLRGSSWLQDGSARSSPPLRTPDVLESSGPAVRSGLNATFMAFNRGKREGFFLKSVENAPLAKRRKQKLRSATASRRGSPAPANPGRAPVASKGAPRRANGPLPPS
Sequence of Casein kinase II subunit alpha (Homo sapiens) (P68400 whole entry, looked up): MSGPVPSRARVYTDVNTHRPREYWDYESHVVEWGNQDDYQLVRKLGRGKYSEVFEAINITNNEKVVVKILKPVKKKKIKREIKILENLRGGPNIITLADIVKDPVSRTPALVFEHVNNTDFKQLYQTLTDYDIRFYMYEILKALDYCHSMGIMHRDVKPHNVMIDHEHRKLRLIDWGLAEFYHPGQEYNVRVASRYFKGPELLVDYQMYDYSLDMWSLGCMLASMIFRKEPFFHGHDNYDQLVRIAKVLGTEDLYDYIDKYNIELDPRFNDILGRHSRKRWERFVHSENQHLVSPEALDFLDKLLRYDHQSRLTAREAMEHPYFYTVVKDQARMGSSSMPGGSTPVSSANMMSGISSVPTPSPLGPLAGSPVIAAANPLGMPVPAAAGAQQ
Sequence of Testis-specific serine/threonine-protein kinase 1 (Homo sapiens) (Q9BXA7 whole entry): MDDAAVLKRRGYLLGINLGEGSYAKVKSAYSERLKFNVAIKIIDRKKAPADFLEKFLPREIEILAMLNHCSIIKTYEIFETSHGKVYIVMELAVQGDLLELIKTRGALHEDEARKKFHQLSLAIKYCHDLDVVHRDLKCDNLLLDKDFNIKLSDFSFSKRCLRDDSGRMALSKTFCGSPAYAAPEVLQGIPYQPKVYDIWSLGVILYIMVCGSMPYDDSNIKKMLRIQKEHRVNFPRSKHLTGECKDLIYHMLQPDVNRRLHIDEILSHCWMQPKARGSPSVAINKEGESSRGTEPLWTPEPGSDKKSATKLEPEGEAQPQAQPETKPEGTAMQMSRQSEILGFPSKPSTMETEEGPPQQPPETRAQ

Q: What does the source list for CC1(C)OCc2c(Nc3n[nH]c4ccccc34)nc(-c3cn[nH]c3)nc21?
A: inhibition [1]: 18.4%; inhibition [2]: 14.1%; inhibition [3]: -3.6%; inhibition [4]: 4.5%; inhibition [5]: 13.7%; inhibition [6]: 3.8%; inhibition [7]: -2.4%; inhibition [8]: -0.5%; inhibition [9]: 7.3%; inhibition [10]: -1.6%; inhibition [11]: 22%; AUC [12]: 0.37 µM·h; inhibition [13]: 1.4%; inhibition [14]: 95.8%; inhibition [15]: 9.8%; inhibition [16]: 38.8%; inhibition [17]: 14.5%; inhibition [18]: 0.7%; inhibition [19]: 35.3%; inhibition [20]: 14.3%; inhibition [21]: 66%; inhibition [22]: 15.2%; inhibition [23]: -0.6%; inhibition [24]: 0.7%; inhibition [25]: 15.5%; inhibition [26]: 65.6%; inhibition [27]: 16.8%; inhibition [28]: 23.1%; inhibition [29]: 0.8%; inhibition [30]: 2.8%; inhibition [31]: 2.8%; inhibition [32]: 2.9%; inhibition [33]: -1.4%; inhibition [34]: -1.5%; inhibition [35]: 69.5%; inhibition [36]: -5.2%; inhibition [37]: 59.3%; inhibition [38]: 5.1%; inhibition [39]: -5.9%; inhibition [40]: 0%; inhibition [41]: 2.3%; inhibition [42]: 11.5%; inhibition [43]: 9.6%
